The results in this text go back to patent US20120252853A1, “Positive allosteric modulators of nicotinic acetylcholine receptor” (H. Lundbeck A/S, priority 2011, published 2012).

As a reminder, the EC50 is the concentration giving half of the maximal effect. A high value points to a need for much substance. The Emax is the size of the effect at its maximum, as opposed to the concentration needed.

One test deals with human α7 receptor (Homo sapiens, UniProt P36544). The test is described as follows: α7 NNR flux assay (FDSS Ca assay). The format is cell-based. Particulars: positive allosteric modulation; rat GH4C1 cell line stably expressing human α7; acetylcholine 20 μM; % modulation relative to PNU-120596 set to 100%. The procedure, abridged:
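GH4C1 rat cells stably expressing human α7, loaded with Calcium-4 dye plus 2.5 mM probenecid in HBSS/20 mM HEPES pH 7.4, 3 mM CaCl2. Compounds (0.039–20 μM final) preincubated ~95 s before 20 μM acetylcholine (~EC100); Ex480/Em540 fluorescence on FDSS. Values are % modulation, with 3 μM PNU-120596 set to 100%.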

Test [1] relates to α7 nACh receptors expressed in Xenopus oocytes. The test is described as follows: α7 NNR oocyte assay (electrophysiological recordings). Type of test: cell-based, human or rat. Particulars: tested subsequently in the oocyte assay. How it is done: Expression of α7 nACh Receptors in Xenopus oocytes.
Oocytes were surgically removed from mature female Xenepus laevis anaesthetized in 0.4% MS-222 for 10-15 min. The oocytes were then digested at room temperature for 2-3 hours with 0.5 mg/ml collagenase (type IA Sigma-Aldrich) in OR2 buffer (82.5 mM NaCl, 2.0 mM KCl, 1.0 mM MgCl2 and 5.0 mM HEPES, pH 7.6). Oocytes avoid of the follicle layer were selected and incubated for 24 hours in Modified Barth's Saline buffer (88 mM NaCl, 1 mM […], 15 mM HEPES, 2.4 mM NaHCO3, 0.41 mM CaCl2, 0.82 mM MgSO4, 0.3 mM Ca(NO3)2) supplemented with 2 mM sodium pyruvate, 0.1 μg/l penicillin and 0.1 μg/l streptomycin. Stage 1V oocytes were identified and injected with 4.2-48 nl of nuclease free water containing 0.1-1.2 ng of cRNA coding for human α7 nACh receptors or 3.0-32 ng of cRNA coding for rat α7 nACh receptors and incubated at 18° C. for 1-10 days when they were used for electrophysiological recordings.
Electrophysiological Recordings of α7 nACh Receptors Expressed in Oocytes.
Oocytes were used for electrophysiological recordings 1-10 days after injection. Oocytes were placed in a 1 ml bath and perfused with Ringer buffer (115 mM NaCl, 2.5 mM KCl, 10 mM HEPES, 1.8 mM CaCl2, 0.1 mM MgCl2, pH 7.5). Cells were impaled with agar plugged 0.2-1 MΩ electrodes containing 3 M KCl and voltage clamped at −90 mV by a GeneClamp 500B amplifier. The experiments were performed at room temperature. Oocytes were continuously perfused with Ringer buffer and the drugs were applied in the perfusate. ACh (30 μM) applied for 30 sec were used as the standard agonist for activation of the α7 nACh receptors. In the standard screening set-up the new test compound (10 μM or 30 μM) were applied for 1 min of pre-application allowing for evaluation of agonistic activity followed by 30 sec of co-application with ACh (30 μM) allowing for evaluation of PAM activity. […] The drug induced effects on both the peak response and the total charge (AUC) response were calculated thus giving the effect of drug induced PAM activity as fold modulation of the control response. […]

In a further test the target is T1, human KCNQ2 (Homo sapiens, UniProt O43526).
T1 construct: expressed in transfected cells
Kind of test: 86Rb flux in KCNQ2 expressing cells. Type of test: cell-based. Particulars: KCNQ2 opening; Max effect determined in % of the effect of 30 mM KCl. How it is done:
Chinese hamster ovary cells (CHO-K1) were stably transfected with human KCNQ2 inserted into the pCl-neo vector (Promega). Cells were plated at 2×10^5 cells/ml in 96-well plates in 100 μl media (MEM Alpha media, 10% FBS, 1% P/S, 1% L-Glu, and 1 mg/ml G418). At the time of plating the cells were furthermore loaded with 1 μCi/ml 86Rb over-night. On the subsequent day, the cells were washed with 3×50 μl assay buffer (HBSS+10 mM HEPES, pH 7.4) and incubated in 50 μl buffer with retigabine for 30 minutes at 37° C. Following this preincubation, the cell membrane was depolarized for 30 minutes at 37° C. with 15 mM KCl (final concentration) in assay buffer supplemented with the appropriate amount of compound to maintain drug concentration. The supernatant was removed and placed in pony-vials with 0.5 ml scintillation liquid and counted. The dose-dependent effect of the investigated compounds on the efflux of 86Rb through the hKCNQ2 channels were calculated according to the four parameter logistic equation: Y=Bottom+(Top-Bottom)/(1+10̂((LogEC50-X)*HillSlope)), where X is the logarithm of concentration, Y is the response, and HillSlope is the hill coefficient.
A representative selection of compounds of the invention were tested in the assay in addition to 6 comparative examples wherein 0 has been substituted with a 6-membered ring comprising up to two N atoms. Comparative 1-4 has been disclosed in WO 2009/127678 or WO 2009/127679 and comparative 5-6 are close analogues.

Chain of human α7 receptor (P36544 23-502): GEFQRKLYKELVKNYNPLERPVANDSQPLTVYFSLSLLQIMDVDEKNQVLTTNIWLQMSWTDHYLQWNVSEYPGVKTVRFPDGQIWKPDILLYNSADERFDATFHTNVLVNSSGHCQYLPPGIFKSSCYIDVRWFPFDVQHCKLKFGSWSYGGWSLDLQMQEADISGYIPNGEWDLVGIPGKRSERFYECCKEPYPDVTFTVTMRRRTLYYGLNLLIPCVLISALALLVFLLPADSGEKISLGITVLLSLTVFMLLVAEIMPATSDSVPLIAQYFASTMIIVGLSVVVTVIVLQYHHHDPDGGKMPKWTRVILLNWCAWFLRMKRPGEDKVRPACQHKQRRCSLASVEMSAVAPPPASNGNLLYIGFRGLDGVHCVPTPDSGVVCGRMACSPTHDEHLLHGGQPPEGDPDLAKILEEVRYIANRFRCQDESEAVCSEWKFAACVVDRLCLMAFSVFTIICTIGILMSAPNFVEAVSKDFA

Compound `Cc1cc2cc(CNC(=O)c3cc(C(C)C)no3)ccc2[nH]1` [Compound 34, 3-isopropyl-N-[(2-methyl-1H-indol-5-yl)methyl]isoxazole-5-carboxamide] gave an EC50 on human α7 receptor of 0.9 µM. The “NNR PAM activity in the oocyte assay compared with the flux assay” value in test [1] is on record as “significantly better NNR PAM activity”. For the same compound, the Emax at human KCNQ2 came out at 1%.

As for `Cc1cc(C(=O)N[C@H](C)c2ccc3[nH]c(C)cc3c2)sn1` [Compound 47, 3-methyl-N-[(1R)-1-(2-methyl-1H-indol-5-yl)ethyl]isothiazole-5-carboxamide], the EC50 on human α7 receptor was greater than 20 µM. In addition, the “NNR PAM activity in the oocyte assay compared with the flux assay” value in test [1] was “significantly better NNR PAM activity”.

`Cc1cc2cc([C@@H](C)NC(=O)c3cnn(CC(F)(F)F)c3)ccc2[nH]1` [Compound 86, N-[(1R)-1-(2-methyl-1H-indol-5-yl)ethyl]-1-(2,2,2-trifluoroethyl)pyrazole-4-carboxamide] yielded an EC50 at human α7 receptor greater than 20 µM. The “NNR PAM activity in the oocyte assay compared with the flux assay” value in test [1] is on record as “significantly better NNR PAM activity”.
